Data taken from patent US20210380547A1, “UREA DERIVATIVES FOR TREATING AND/OR PREVENTING CANCER” (CENTRE NATIONAL DE LA RECHERCHE SCIENTIFIQUE, priority 2018, published 2021).

Experiments:
[1] = tested on: CAL33; assay: XTT cell viability assay, CAL33; assay type: cell-based; conditions: Homo sapiens, CAL-33; XTT assay (48 h); standard deviation of 10%; read-out: EC50 (μM) Head and Neck CAL33
Procedure: Fifty microliters of sodium 3′-[1-phenylaminocarbonyl)-3,4-tetrazolium]-bis(4-methoxy-6-nitro) benzene sulfonic acid hydrate (XTT) reagent was added to each well. The assay is based on the cleavage of the yellow tetrazolium salt XTT to form an orange formazan dye by metabolically active cells. The absorbance of the formazan product, reflecting cell viability, was measured at 490 nm. Each assay was performed in quadruplicate.
Compounds #1-#14 have been assayed as potential anti-proliferative agents against a panel of human breast head and neck, and kidney tumor cells and hematological malignancies, selected on the basis of their aggressiveness (e.g. incurable triple-negative breast cancer cells: MDA-MB-231; kidney ccRCC cells: RCC4, A498 and 786-O and 786R; head and neck cancer cells: CAL33, CAL33RR, CAL27, and CAL27RR; acute myeloid cell lines: OCI-AML2, OCI-AML3, MolM13, and MolM14; myelodysplastic cell line: SM1; and chronic myeloid cell line: CML). All these cell lines share as common denominator the expression of CXCR1 and CXCR2. The EC50 values have been measured by a XTT colorimetric assay, and compared to those of SB-225002, used as a reference; the results are listed in Table 1.

[2] = tested on: 786-O and 786-R cells; assay: Clonogenicity (colony formation) assay, RCC cells; assay type: cell-based, human; conditions: 1 μM, 10 days
Procedure: G: Clonogenicity assays: RCC cells ([…] and 786-R) were treated with compound #1 or sunitinib (1 μM) and colored with Giemsa blue after 10 days (representative results of an experiment repeated trice);
Cells (5000 cells per condition) were treated or not with compound #1 and sunitinib, and cisplatin. Colonies were detected after 10 days of culture. Cells were then washed, fixed at room temperature for 20 min with 3% paraformaldehyde (PFA; Electron Microscopy Sciences) and colored by GIEMSA (Sigma)

In the case of `O=C(Nc1cccc(Cl)c1)Nc1nc2ccc([N+](=O)[O-])cc2s1` [Compound #1, 1-(3-chlorophenyl)-3-(6-nitrobenzo[d]thiazol-2-yl)urea], the EC50 [1] is reported as 2 µM and the clonogenicity [2] is reported as “exerts a cytostatic effect”.
